Source: patent US20250042920A1 (OCEAN UNIVERSITY OF CHINA, priority 2021, published 2025)

Legend:
MNK1 = MNK1 (Homo sapiens, UniProt Q9BUB5); experiment: MNK1 kinase inhibition assay (LANCE Ultra kinase activity assay, PerkinElmer); format: biochemical; conditions: 450 μM ATP; for IC50: five concentrations 10000-1 nM; for inhibition at 1 µM: inhibition rate at 1000 nM compound, 60 min, 25° C., read-out: Inhibitory activity(1 μM) MNK1
Method: (§1) MNK1 and MNK2 kinase inhibition assays were performed using LANCE Ultra kinase activity assay developed by PerkinElmer. […] The test steps are as follows: At 25° C., 1.00 ng MNK1 or 0.05 ng MNK2 was prepared with different concentrations (10000, 1000, 100, 10, 1 nM) of the tested compound to form a total volume of 10 μL reaction mixture (MNK1: 12.5 nM CREB, 450 μM ATP, 2 mM DTT, 1× buffer; MNK2: 12.5 nM CREB, 100 μM ATP, 2 mM DTT, 1×buffer), and incubation for 60 min. The reaction was terminated by adding 5 μL EDTA/Detection buffer and 5 μL Eu-CREB/Detection buffer. The ratio of HTRF signals at 615 nm and 665 nm was detected after 60 min of incubation. The inhibition rate was calculated by measuring the compounds at 1000 nM.
(§2) Then five different concentrations (10000, 1000, 100, 10, 1 nM) of the tested compounds were measured, and the IC50 value was calculated according to the inhibition rate fitting curve.

MNK2 = MNK2 (Homo sapiens, UniProt Q9HBH9); experiment: MNK2 kinase inhibition assay (LANCE Ultra kinase activity assay, PerkinElmer); format: biochemical; conditions: 100 μM ATP; for IC50: five concentrations 10000-1 nM; for inhibition at 1 µM: inhibition rate at 1000 nM compound, 60 min, 25° C., read-out: Inhibitory activity(1 μM) MNK2
Chain of MNK2 (Q9HBH9 whole entry): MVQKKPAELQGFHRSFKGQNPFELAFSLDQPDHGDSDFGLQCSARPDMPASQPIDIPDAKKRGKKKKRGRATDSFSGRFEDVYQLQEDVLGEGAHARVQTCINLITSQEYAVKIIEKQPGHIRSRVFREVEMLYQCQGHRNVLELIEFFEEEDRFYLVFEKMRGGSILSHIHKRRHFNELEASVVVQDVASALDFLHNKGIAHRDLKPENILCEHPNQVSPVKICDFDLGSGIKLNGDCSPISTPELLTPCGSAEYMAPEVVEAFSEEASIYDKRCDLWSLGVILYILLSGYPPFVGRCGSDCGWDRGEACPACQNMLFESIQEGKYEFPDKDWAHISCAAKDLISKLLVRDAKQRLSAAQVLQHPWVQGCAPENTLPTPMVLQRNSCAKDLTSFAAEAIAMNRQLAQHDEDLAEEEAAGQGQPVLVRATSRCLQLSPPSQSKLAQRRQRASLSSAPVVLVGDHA
Method: as §1, §2

Chain of MNK1 (Q9BUB5 whole entry): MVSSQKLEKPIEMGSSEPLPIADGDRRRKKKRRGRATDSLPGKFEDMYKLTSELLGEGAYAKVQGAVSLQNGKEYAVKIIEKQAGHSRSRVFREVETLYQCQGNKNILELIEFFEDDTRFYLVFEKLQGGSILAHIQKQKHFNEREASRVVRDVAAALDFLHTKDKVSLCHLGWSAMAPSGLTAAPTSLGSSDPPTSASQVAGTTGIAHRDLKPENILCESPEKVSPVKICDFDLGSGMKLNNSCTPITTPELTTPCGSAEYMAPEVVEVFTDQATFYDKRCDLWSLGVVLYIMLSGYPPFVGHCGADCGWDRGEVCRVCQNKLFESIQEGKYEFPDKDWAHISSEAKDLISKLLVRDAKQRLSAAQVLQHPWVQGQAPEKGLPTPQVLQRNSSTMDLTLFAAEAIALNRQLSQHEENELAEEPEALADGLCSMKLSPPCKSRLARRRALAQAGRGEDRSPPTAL

Compound | IC50 (MNK1) [nM] | inhibition at 1 µM (MNK1) [%] | IC50 (MNK2) [nM] | inhibition at 1 µM (MNK2) [%]
CN1CCN(C(=O)c2ccc(-c3nn4c(-c5ccc(C#N)c(F)c5)cnc4s3)cc2)CC1 [Compound 24, 2-fluoro-4-(2-(4-(4-methylpiperazine-1-carbonyl)phenyl)imidazo[2,1-b][1,3,4]thiadiazol-5-yl)benzonitrile] | 50 to 200 | > 75 | 50 to 200 | > 75
CN1CCN(C(=O)c2ccc(-c3nn4c(-c5ccc([N+](=O)[O-])cc5)cnc4s3)cc2)CC1 [Compound 25, (4-methylpiperazin-1-yl)(4-(5-(4-nitrophenyl)imidazo[2,1-b][1,3,4]thiadiazol-2-yl)phenyl)methanone] | < 50 | > 75 | < 50 | > 75
CN1CCN(C(=O)c2ccc(-c3nn4c(-c5ccc(F)cc5F)cnc4s3)cc2)CC1 [Compound 26, (4-(5-(2,4-difluorophenyl)imidazo[2,1-b][1,3,4]thiadiazol-2-yl)phenyl)(4-methylpiperazin-1-yl)methanone] |  | 25 to 50 |  | 25 to 50
CN1CCN(C(=O)c2ccc(-c3nn4c(-c5ccc(C#N)nc5)cnc4s3)cc2)CC1 [Compound 27, 5-(2-(4-(4-methylpiperazine-1-carbonyl)phenyl)imidazo[2,1-b][1,3,4]thiadiazol-5-yl)picolinonitrile] |  | 25 to 50 |  | 25 to 50
CN1CCN(C(=O)c2ccc(-c3nn4c(-c5ccc(F)nc5)cnc4s3)cc2)CC1 [Compound 28, (4-(5-(6-fluoropyridin-3-yl)imidazo[2,1-b][1,3,4]thiadiazol-2-yl)phenyl)(4-methylpiperazin-1-yl)methanone] | 800 to 1500 | 50 to 75 | 200 to 800 | > 75

Continued, values first:

IC50 (MNK1) [nM] | inhibition at 1 µM (MNK1) [%] | IC50 (MNK2) [nM] | inhibition at 1 µM (MNK2) [%] | Compound
 | 25 to 50 |  | 25 to 50 | CN1CCN(C(=O)c2ccc(-c3nn4c(-c5ccc(C(F)(F)F)nc5)cnc4s3)cc2)CC1 [Compound 29, (4-methylpiperazin-1-yl)(4-(5-(6-(trifluoromethyl)pyridin-3-yl)imidazo[2,1-b][1,3,4]thiadiazol-2-yl)phenyl)methanone]
< 50 | > 75 | < 50 | > 75 | N#Cc1ccc(-c2cnc3sc(-c4ccc(C(=O)N5CCCC5)cc4)nn23)cc1 [Compound 30, 4-(2-(4-(pyrrolidine-1-carbonyl)phenyl)imidazo[2,1-b][1,3,4]thiadiazol-5-yl)benzonitrile]
 | 25 to 50 |  | 25 to 50 | N#Cc1ccc(-c2cnc3sc(-c4ccc(C(=O)OCCN5CCCC5)cc4)nn23)cc1 [Compound 31, 2-(pyrrolidin-1-yl)ethyl 4-(5-(4-cyanophenyl)imidazo[2,1-b][1,3,4]thiadiazol-2-yl)benzoate]
 | 25 to 50 |  | 25 to 50 | N#Cc1ccc(-c2cnc3sc(-c4ccc(C(=O)OCCCCCO)cc4)nn23)cc1 [Compound 34, 5-hydroxypentyl 4-(5-(4-cyanophenyl)imidazo[2,1-b][1,3, 4]thiadiazol-2-yl)benzoate]
 | 25 to 50 |  | 25 to 50 | N#Cc1ccc(-c2cnc3sc(-c4ccc(C(=O)SCCO)cc4)nn23)cc1 [Compound 35, S-(2-hydroxyethyl)4-(5-(4-cyanophenyl)imidazo[2,1-b][1,3,4]thiadiazol-2-yl)benzothioate]
< 50 | > 75 | < 50 | > 75 | CN(C)CCNC(=O)c1ccc(-c2nn3c(-c4ccc(C#N)cc4)cnc3s2)cc1 [Compound 36, 4-(5-(4-cyanophenyl)imidazo[2,1-b][1,3,4]thiadiazol-2-yl)-N-(2-(dimethylamino)ethyl)benzamide]
< 50 | > 75 | < 50 | > 75 | N#Cc1ccc(-c2cnc3sc(-c4ccc(C(=O)NCCCN5CCOCC5)cc4)nn23)cc1 [Compound 37, 4-(5-(4-cyanophenyl)imidazo[2,1-b][1,3,4]thiadiazol-2-yl)-N-(3-morpholinopropyl)benzamide]
